Experimental data: patent US8034314B2, “Photoreactive compound specifically binding to calcium binding proteins” (priority 2004, dated 2011)

Tests used:
[1] = biological target: T1, ryanodine receptor (RyR) / Ca2+-release channel (Oryctolagus cuniculus, UniProt P11716); test: [3H]ryanodine binding to SR membranes; parameters: species or system rabbit; conditions: no UV; mean ± SEM of 3 to 5 experiments
T1 construct: from tissue; host or cells: rabbit fast twitch skeletal muscle SR membranes
Experimental: (§1) Sarcoplasmic reticulum (SR) membranes were prepared from rabbit fast twitch skeletal muscle as described by Saito [Saito et al.: J. Cell Biol. 99 (1984) 875-85]. Mitochondria were isolated from rat liver as described by us previously [Gincel D. et al.: Biochem J. 358 (2001) 147-55]. VDAC was purified by a method developed in our laboratory, using columns of hydroxyapatite and reactive red agarose [Gincel D. et al.: J. Bioenerget. Biomembr. 32 (2000) 571-83].
For the determination of [^3H]ryanodine binding, SR membranes were incubated for 20-60 min at 37° C. in a standard binding solution containing 1M NaCl, 20 mM MOPS (pH 7.4), 50 μM free Ca^2+ and 20 nM [^3H]ryanodine. Unbound ryanodine was separated from protein-bound ryanodine by vacuum filtration of the sample through nitrocellulose filters (0.45 μm), followed by two washes with 4 ml ice-cold buffer containing 0.2 M NaCl, 10 mM MOPS (pH 7.4) and 50 μM CaCl2. The retained radioactivity in the dried filters was determined by liquid scintillation counting. Specific binding of [^3H]ryanodine was defined as the difference between the binding in the presence of 20 nM [^3H]ryanodine and in the presence of 20 μM unlabeled ryanodine.
(§2) The hexavalent RuR and the trivalent Ru360 have been employed in various studies as inhibitors of Ca^2+-dependent reactions. As shown here, even with no photoactivation, AzRu, in contrast to RuR and Ru360, was effective in inhibiting the SR Ca^2+-pump (Table 3). […] This may open the way to inhibit other Ca^2+-dependent activities that are not sensitive to RuR, such as the plasma membrane Ca^2+-ATPase. […] RuR was employed to improve mitochondrial production in ischemic reperfused pig myocardium, was employed in the nervous system to follow neuronal death progress and can act as an anti-oxidant in certain conditions. Considering the potent activity of AzRu in RuR-insensitive reactions (see Table 3), its applications in various biological studies should be explored. Ca^2+ accumulation in SR and mitochondria was assayed as described above in the absence and presence of different concentrations of RuR (0.05-100 μM), Ru360 (0.01-100 μM) or AzRu (0.1-100 μM). The concentration required for 50% inhibition (IC50) was derived from the plot of Ca^2+ accumulation activity or ryanodine binding as a function of the reagent concentration. The results are the mean±SEM of 3 to 5 experiments (Table 3).

[2] = system: mitochondrial uniporter (Ca2+ uptake in mitochondria); test: Ca2+ uptake/accumulation in isolated mitochondria; type: biochemical, rat; conditions: no UV; mean ± SEM of 3 to 5 experiments
Experimental: as §1
Ca^2+-accumulation in freshly prepared mitochondria (0.5 mg/ml) was assayed for 1 to 20 minutes at 30° C. in the presence of 225 mM mannitol, 75 mM sucrose, 120 μM CaCl2 (containing 3×10^4 cpm/nmol ^45Ca^2+), 5 mM HEPES/KOH pH 7.0, and 5 mM succinate with 0.1 mM Pi, or 4 mM MgCl2 with 3 mM ATP. The Ca^2+-uptake was terminated by rapid Millipore filtration, followed by a wash with 5 ml of 0.15 M KCl. The Ca^2+-accumulation in SR was determined as described previously [Shoshan-Barmatz V. & Shaineberg A.: Biochim. Biophys. Acta 1065 (1991) 82-8]. Electron transport from succinate to cytochrome c was described in above cited article [Gincel D. et al.: J. Bioenerget. Biomembr. 32 (2000) 571-83].
The effect of AzRu on mitochondrial process of electron transport from the donor succinate to the acceptor cytochrome c was characterized as described above. Although said electron transfer involves several dozens electron transfer carriers, this reaction was not affected by azido-ruthenium of this invention.
as §2

[3] = system: U-937 human monocytic cell line; test: STS-induced apoptotic cell death of U-937 cells (acridine orange/ethidium bromide staining); type: cell-based; conditions: STS 1.25 μM, no AzRu
Experimental: The U-937 human monocytic cell line was grown under an atmosphere of 95% air and 5% CO2 in RPMI 1640 supplemented with 10% fetal calf serum (FCS), 1 mM L-glutamine, 100 U/ml penicillin, and 100 μg/ml streptomycin. Cells were plated at a density of 5.4×10^4 cells/cm^2 in 24-well plates and then incubated with or without AzRu for 18 hr before exposure to 1.25 μM staurosporine (STS) to induce apoptosis. Cell viability was analyzed 5 and 7 hrs after STS addition by staining with 100 μg/ml acridine orange (AcOr) and 100 μg/ml ethidium bromide (EtBr) in PBS. The cells were then visualized by fluorescence microscopy (Olympus IX51) and images were recorded on an Olympus DP70 camera, using an SWB filter.
AzRu had no effect on the viability of the cells that were not exposed to STS. In FIG. 13 A, U-937 cells were incubated without (a, c) or with AzRu (10 μM) (b,d) for 18 hrs and thereafter were exposed to STS (1.25 μM) (c and d). After five hours the cells were stained with acridine orange and ethidium bromide. Arrows indicate cells in early apoptotic state, represented as degraded nucleus, but with intact cell membrane (stained by acridine orange). Arrowheads indicate a late apoptotic state, as shown by the presence of a degraded nucleus (stained by both acridine orange and ethidium bromide). Scale bar, 20 μm. In FIG. 13 B, quantitative analysis of apoptotic cell death in control cells and cells exposed to AzRu was assessed 5 and 7 hr after their exposure to STS (1.25 by ANOVA and t-test. P<0.001 was considered statistically significant (***). Data are the means±SEM, n=3. In each independent experiment, approximately 200 cells were counted for each treatment.

T1 sequence (P11716 whole entry): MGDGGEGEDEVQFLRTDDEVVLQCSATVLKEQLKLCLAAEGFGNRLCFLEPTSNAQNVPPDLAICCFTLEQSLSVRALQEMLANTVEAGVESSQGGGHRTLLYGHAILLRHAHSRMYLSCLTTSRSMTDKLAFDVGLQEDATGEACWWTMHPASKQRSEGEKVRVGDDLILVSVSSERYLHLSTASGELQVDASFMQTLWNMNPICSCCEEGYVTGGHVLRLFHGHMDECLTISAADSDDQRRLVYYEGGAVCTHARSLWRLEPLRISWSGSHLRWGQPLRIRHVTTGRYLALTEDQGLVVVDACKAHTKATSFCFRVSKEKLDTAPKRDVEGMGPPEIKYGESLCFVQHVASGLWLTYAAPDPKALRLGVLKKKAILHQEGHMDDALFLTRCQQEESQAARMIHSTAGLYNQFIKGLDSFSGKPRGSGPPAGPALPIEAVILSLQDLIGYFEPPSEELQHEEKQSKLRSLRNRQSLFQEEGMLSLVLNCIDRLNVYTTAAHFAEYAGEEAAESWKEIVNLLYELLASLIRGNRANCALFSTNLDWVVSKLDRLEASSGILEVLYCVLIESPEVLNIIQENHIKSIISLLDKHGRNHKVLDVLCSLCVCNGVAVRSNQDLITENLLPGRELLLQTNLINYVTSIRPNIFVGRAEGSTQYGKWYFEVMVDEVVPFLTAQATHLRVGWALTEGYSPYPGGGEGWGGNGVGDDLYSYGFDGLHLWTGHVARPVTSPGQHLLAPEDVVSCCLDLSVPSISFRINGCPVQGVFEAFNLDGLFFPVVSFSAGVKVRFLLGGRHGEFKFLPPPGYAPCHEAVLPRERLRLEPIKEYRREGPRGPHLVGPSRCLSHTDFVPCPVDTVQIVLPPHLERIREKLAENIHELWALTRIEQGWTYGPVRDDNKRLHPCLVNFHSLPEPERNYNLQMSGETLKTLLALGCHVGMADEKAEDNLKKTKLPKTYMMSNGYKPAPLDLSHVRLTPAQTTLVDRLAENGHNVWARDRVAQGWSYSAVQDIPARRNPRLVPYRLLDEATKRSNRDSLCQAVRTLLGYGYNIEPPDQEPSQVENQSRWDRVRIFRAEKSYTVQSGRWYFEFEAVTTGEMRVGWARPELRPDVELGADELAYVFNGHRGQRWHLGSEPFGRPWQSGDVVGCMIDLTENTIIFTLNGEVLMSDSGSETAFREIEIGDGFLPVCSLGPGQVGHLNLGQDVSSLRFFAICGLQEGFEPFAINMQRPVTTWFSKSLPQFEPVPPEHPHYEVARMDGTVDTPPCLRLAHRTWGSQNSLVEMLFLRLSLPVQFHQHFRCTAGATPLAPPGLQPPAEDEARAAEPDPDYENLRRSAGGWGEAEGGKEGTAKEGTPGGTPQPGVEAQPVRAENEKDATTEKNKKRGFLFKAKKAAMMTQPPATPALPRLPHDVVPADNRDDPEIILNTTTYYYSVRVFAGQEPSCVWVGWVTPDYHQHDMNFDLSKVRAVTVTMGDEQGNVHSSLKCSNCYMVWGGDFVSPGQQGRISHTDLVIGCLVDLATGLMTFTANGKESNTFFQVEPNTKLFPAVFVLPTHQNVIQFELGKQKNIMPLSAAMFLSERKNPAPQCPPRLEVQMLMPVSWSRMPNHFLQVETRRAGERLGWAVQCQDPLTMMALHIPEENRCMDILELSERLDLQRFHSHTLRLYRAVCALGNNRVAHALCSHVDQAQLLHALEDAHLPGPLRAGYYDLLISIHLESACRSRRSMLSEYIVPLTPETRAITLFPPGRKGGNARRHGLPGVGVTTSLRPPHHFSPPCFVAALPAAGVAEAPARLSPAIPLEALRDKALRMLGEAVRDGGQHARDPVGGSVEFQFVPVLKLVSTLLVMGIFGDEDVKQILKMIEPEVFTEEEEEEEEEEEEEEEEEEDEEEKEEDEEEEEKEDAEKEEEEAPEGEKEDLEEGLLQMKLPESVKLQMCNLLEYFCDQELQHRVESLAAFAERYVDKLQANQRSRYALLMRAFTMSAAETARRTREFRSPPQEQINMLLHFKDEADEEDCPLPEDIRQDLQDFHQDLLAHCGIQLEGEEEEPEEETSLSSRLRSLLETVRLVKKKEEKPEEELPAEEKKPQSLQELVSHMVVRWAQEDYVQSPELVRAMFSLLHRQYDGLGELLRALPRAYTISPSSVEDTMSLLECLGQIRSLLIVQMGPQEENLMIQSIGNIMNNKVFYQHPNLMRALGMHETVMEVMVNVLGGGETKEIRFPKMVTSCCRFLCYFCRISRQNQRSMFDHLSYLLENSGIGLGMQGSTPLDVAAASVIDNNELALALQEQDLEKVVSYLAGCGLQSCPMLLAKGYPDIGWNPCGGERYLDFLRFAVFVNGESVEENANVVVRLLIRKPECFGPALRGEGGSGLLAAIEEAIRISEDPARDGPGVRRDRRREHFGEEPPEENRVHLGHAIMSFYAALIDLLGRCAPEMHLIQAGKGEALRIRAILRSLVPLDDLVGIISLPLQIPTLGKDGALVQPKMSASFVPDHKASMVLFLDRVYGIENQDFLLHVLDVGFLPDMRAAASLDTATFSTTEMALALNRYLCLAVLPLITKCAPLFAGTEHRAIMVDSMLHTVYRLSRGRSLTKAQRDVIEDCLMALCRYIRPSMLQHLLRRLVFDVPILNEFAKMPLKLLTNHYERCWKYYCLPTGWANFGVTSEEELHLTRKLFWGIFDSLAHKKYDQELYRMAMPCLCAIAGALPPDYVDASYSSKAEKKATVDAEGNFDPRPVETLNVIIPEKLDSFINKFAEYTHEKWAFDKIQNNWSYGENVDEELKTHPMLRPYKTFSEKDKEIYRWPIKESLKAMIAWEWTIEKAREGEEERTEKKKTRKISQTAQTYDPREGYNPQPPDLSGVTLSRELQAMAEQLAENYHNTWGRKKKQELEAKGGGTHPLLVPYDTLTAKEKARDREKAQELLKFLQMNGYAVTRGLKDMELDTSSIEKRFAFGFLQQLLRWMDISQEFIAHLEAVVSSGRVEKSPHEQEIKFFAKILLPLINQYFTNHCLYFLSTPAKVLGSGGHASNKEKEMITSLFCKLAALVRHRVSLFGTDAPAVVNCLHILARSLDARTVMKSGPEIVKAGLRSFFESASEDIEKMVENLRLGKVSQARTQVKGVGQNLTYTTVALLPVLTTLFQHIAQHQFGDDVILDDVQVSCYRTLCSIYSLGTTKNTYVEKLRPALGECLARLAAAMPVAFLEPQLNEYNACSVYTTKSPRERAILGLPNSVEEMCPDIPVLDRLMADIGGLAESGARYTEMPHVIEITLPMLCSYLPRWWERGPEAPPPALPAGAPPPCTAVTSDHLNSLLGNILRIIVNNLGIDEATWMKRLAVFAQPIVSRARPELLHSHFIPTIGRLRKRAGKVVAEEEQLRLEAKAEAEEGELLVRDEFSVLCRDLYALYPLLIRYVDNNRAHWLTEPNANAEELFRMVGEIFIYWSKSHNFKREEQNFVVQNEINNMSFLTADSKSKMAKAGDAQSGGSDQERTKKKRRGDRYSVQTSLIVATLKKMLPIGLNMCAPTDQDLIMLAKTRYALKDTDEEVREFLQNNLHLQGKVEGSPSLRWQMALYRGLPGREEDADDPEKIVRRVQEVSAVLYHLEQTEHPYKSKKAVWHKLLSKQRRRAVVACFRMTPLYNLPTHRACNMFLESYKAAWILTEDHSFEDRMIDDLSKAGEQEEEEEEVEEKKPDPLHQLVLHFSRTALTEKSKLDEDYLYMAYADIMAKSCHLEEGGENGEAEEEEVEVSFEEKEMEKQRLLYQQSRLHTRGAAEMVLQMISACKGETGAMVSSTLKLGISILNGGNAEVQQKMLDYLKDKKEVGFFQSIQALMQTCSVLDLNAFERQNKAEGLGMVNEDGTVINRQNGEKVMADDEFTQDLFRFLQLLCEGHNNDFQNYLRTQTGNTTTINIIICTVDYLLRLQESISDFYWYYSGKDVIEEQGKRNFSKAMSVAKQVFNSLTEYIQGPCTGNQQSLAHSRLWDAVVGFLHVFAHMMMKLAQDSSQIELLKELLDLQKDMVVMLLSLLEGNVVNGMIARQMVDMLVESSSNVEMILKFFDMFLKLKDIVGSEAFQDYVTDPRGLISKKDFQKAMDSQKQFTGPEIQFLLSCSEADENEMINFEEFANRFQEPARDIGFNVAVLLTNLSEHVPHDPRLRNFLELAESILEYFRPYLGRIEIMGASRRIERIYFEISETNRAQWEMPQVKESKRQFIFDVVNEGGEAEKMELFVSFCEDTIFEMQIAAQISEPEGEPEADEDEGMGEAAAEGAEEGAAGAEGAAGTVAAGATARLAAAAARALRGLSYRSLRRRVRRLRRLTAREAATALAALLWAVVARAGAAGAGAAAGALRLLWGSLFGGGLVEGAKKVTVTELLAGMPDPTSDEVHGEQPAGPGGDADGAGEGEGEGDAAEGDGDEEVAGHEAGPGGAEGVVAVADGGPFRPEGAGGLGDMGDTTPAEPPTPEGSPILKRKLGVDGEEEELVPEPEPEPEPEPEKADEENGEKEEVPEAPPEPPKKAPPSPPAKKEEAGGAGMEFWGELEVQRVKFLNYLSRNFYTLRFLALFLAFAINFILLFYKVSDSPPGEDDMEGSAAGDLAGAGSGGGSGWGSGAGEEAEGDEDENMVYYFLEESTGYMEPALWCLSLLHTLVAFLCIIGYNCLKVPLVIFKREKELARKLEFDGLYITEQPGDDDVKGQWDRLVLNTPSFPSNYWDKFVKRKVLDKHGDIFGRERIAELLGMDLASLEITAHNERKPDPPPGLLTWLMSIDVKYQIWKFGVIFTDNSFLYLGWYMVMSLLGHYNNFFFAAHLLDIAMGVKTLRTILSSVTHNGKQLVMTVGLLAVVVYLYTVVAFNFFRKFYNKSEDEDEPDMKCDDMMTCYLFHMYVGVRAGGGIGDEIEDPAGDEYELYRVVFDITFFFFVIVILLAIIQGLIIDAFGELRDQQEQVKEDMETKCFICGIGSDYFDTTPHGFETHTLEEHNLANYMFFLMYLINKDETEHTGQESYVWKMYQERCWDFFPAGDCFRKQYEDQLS

## Ru360 [reference compound]
[1]
  IC50: 14.8 ± 2.8 µM
[2]
  IC50: 0.067 ± 0.008 µM

## CN[C@@H]1C[C@H]2O[C@@](C)([C@@H]1OC)n1c3ccccc3c3c4c(c5c6ccccc6n2c5c31)C(=O)NC4 [STS, staurosporine, reference compound]
[3]; 5 hrs exposure
  Apoptotic cell death (% of the cells): about 42%
[3]; 7 hrs exposure
  Apoptotic cell death (% of the cells): ~76%
